For 9 molecules, IC50 results are on record in patent US12059425B2, “Heterocyclic compounds and uses thereof” (Kumquat Biosciences Inc., priority 2022, dated 2024).

pIC50: −log10 of the molar value. Where only a bound is given, the exact number is not on record here.

One assay has as its target T1, K-Ras G12D (Homo sapiens, UniProt P01116, G12D).
T1 construct: made in house; host or cells: E. coli, e.g. BL21 (DE3)
The experiment in a line: PPI-HTRF assay, K-Ras G12D / SOS1 interaction. In kind it is biochemical. The conditions noted are these: HTRF, K-Ras G12D; read-out: PPI-HTRF-5 nM (K-Ras G12D IC50). The procedure, abridged:
(§1)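 HTRF readout: 665/620 nm ratio (ex 337 nm) after ≥10 min incubation. Donor anti-GST-Eu(K) sits on GST-K-Ras (WT, G12D, G12V or G12S) and acceptor anti-6His-XL665 on His-hSOS1. Buffer ~5 mM HEPES pH 7.4, ~150 mM NaCl, ~1 mM DTT, 0.05% BSA, 0.0025% Igepal. Duplicate 6-point dilution, 10–0.01 μM, fitted to IC50.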
Background: In TR-FRET formats the signal depends on donor and acceptor labels being close together.

The target of the next assay is T2, K-Ras G12S (Homo sapiens, UniProt P01116, G12S).
T2 construct: made in house; host or cells: E. coli, e.g. BL21 (DE3)
T2 sequence (P01116 1-188 isoform P01116-2 G12S): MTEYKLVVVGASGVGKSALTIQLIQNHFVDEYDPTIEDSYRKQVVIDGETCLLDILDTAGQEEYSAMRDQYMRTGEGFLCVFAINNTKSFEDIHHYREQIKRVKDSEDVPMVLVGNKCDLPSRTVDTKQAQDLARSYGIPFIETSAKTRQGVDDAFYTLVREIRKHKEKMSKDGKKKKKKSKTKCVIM
The assay is described as follows: PPI-HTRF assay, K-Ras G12S / SOS1 interaction. The conditions noted are these: read-out: PPI-HTRF-5 nM (K-Ras G12S IC50). In kind it is biochemical. The procedure, abridged:
as §1

The next assay deals with T3, K-Ras G12V (Homo sapiens, UniProt P01116, G12V).
T3 construct: made in house; host or cells: E. coli, e.g. BL21 (DE3)
T3 sequence (P01116 1-188 isoform P01116-2 G12V): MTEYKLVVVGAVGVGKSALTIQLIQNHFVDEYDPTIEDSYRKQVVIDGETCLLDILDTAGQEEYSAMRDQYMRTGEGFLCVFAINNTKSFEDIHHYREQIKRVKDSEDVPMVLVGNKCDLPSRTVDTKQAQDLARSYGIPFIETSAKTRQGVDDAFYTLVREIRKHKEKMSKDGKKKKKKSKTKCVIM
The assay is described as follows: PPI-HTRF assay, K-Ras G12V / SOS1 interaction. In kind it is biochemical. The conditions noted are these: HTRF, K-Ras G12V; read-out: PPI-HTRF-5 nM (K-Ras G12V IC50). The procedure, abridged: as §1

Another assay has as its target T4, wildtype K-Ras (Homo sapiens, UniProt P01116).
T4 construct: made in house; host or cells: E. coli, e.g. BL21 (DE3)
The experiment in a line: PPI-HTRF assay, wildtype K-Ras / SOS1 interaction. It counts as biochemical. The conditions noted are these: HTRF, K-Ras wt; read-out: PPI-HTRF-5 nM (K-Ras wt IC50). In a few lines: as §1

A further assay concerns GP2D cells. The experiment in a line: Ras cellular assay, cell proliferation GP2D. In kind it is cell-based. The procedure, abridged:
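Growth inhibition read by CellTiter-Glo luminescence roughly 5 days after compound addition, which followed overnight plating of G12D-mutant GP2D cells (e.g., 800 per well). Compounds were tested as a serial dilution (e.g., 9 points, 3-fold), with IC50 fitted by four-parameter model.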

The subject of the next assay is A549 cells. The experiment in a line: Ras cellular assay, cell proliferation A549. In kind it is cell-based. The conditions noted are these: Homo sapiens. The procedure, abridged: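 G12S-mutant A549 cells (800/well) in RPMI-1640 plus 10% heat-inactivated FBS, standard or ultra-low attachment 384-well plates, dosed the day after plating with a 10-point 3-fold series. Viability by CellTiter-Glo luminescence about 6 days later; IC50 from four-parameter fit.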

The test system of the next assay is SW620 cells. The experiment in a line: Ras cellular assay, cell proliferation SW620. In kind it is cell-based. The conditions noted are these: Homo sapiens, SW-620. The text has this: For example, this assay can be also used to assess selective growth inhibition of a mutant Ras protein relative to a wildtype, or relative to a different mutant Ras protein.

T1 sequence (P01116 1-188 isoform P01116-2 G12D): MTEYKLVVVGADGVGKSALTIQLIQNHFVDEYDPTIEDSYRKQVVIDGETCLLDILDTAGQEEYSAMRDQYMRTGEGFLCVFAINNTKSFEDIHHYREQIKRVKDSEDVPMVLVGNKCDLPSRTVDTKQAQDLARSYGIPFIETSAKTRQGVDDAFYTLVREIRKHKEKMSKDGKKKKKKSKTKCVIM
T4 sequence (P01116 1-188 isoform P01116-2): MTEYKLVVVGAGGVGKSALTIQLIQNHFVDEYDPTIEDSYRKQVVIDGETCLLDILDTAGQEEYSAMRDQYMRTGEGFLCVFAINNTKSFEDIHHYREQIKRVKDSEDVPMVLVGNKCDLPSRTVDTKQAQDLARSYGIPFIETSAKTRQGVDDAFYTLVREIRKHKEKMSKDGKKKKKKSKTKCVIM

As to `N#Cc1c(N)sc2c(F)ccc(-c3c(Cl)c4c5c(nc(OC[C@@]67CCCN6C[C@H](F)C7)nc5c3F)N3CC(COC(F)F)CCC3CO4)c12` (stereo partly drawn) [compound 154, 2-amino-4-(6-chloro-11-((difluoromethoxy)methyl)-4-fluoro-2-(((2R,7aS)-2-fluorotetrahydro-1H-pyrrolizin-7a(5H)-yl)methoxy)-8,8a,9,10,11,12-hexahydropyrido[2′,1′:3,4][1,4]oxazepino [5,6,7-de]quinazolin-5-yl)-7-fluorobenzo[b]thiophene-3-carbonitrile], the pIC50 at K-Ras G12D, at K-Ras G12S, at K-Ras G12V, on wildtype K-Ras, in the assay on GP2D cells and in the assay with A549 cells was above 5.30 each time. Also, the negative-log IC50 (pIC50) (usually the negative decadic logarithm of the IC50, by convention in mol/L) with SW620 cells is above 5.30.

Regarding `COCC1CCC2COc3c(Cl)c(-c4ccc(F)c5sc(N)c(C#N)c45)c(F)c4nc(OC[C@@]56CCCN5C[C@H](F)C6)nc(c34)N12` (stereo partly drawn) [compound 138, 2-amino-4-(6-chloro-4-fluoro-2-(((2R,7aS)-2-fluorotetrahydro-1H-pyrrolizin-7a(5H)-yl)methoxy)-11-(methoxymethyl)-8a,9,10,11-tetrahydro-8H-pyrrolo[2′,1′:3,4][1,4]oxazepino[5,6,7-de]quinazolin-5-yl)-7-fluorobenzo[b]thiophene-3-carbonitrile], the negative logarithm of the IC50 (pIC50) at K-Ras G12D, at K-Ras G12S, at K-Ras G12V, at wildtype K-Ras, in the assay with GP2D cells and with A549 cells was above 5.30 throughout. Besides, the negative logarithm of the IC50 (pIC50) with SW620 cells is above 5.30.

As for `N#Cc1c(N)sc2c(F)ccc(-c3c(Cl)c4c5c(nc(OC[C@@]67CCCN6C[C@H](F)C7)nc5c3F)N3C(CCCC3C(F)F)CO4)c12` (stereo partly drawn) [compound 189, 2-amino-4-(6-chloro-12-(difluoromethyl)-4-fluoro-2-(((2R,7aS)-2-fluorotetrahydro-1H-pyrrolizin-7a(5H)-yl)methoxy)-8,8a,9,10,11,12-hexahydropyrido[2′,1′:3,4][1,4]oxazepino [5,6,7-de]quinazolin-5-yl)-7-fluorobenzo[b]thiophene-3-carbonitrile], the pIC50 on K-Ras G12D, at K-Ras G12S, at K-Ras G12V, on wildtype K-Ras, in the assay on GP2D cells and in the assay with A549 cells was above 5.30 each time. The same molecule had a pIC50 in the assay on SW620 cells above 5.30.

With `N#Cc1c(N)sc2c(F)ccc(-c3c(Cl)c4c5c(nc(OC[C@@]67CCCN6C[C@H](F)C7)nc5c3F)N(CC3CC3)C3COCC3CO4)c12` (stereo partly drawn) [compound 101, 2-amino-4-(6-chloro-12-(cyclopropylmethyl)-4-fluoro-2-(((2R,7aS)-2-fluorotetrahydro-1H-pyrrolizin-7a(5H)-yl)methoxy)-8a,9,11a,12-tetrahydro-8H,11H-furo[3′,4′:6,7][1,5]oxazocino[4,3,2-de]quinazolin-5-yl)-7-fluorobenzo[b]thiophene-3-carbonitrile], the pIC50 on K-Ras G12D, at K-Ras G12S, on K-Ras G12V, at wildtype K-Ras, in the assay on GP2D cells and in the assay on A549 cells was above 5.30 in each case. In the assay with SW620 cells, this molecule had a pIC50 above 5.30.

With `N#Cc1c(N)sc2c(F)ccc(-c3c(Cl)c4c5c(nc(OC[C@@]67CCCN6C[C@H](F)C7)nc5c3F)N3CC5(CCCC3CO4)CN(C(=O)C3CC3(F)F)C5)c12` (stereo partly drawn) [compound 155, 2-amino-4-(3-chloro-1′-(2,2-difluorocyclopropane-1-carbonyl)-1-fluoro-13-(((2R,7aS)-2-fluorotetrahydro-1H-pyrrolizin-7a(5H)-yl)methoxy)-5a,6,7,8-tetrahydro-5H,10H-spiro[azepino[2′,1′:3,4][1,4]oxazepino[5,6,7-de]quinazoline-9,3′-azetidin]-2-yl)-7-fluorobenzo[b]thiophene-3-carbonitrile], the pIC50 on K-Ras G12D, at K-Ras G12S, at K-Ras G12V, on wildtype K-Ras, in the assay on GP2D cells and in the assay on A549 cells was above 5.30 each time. Further, the negative logarithm of the IC50 (pIC50) with SW620 cells was above 5.30.

For the molecule `N#Cc1c(N)sc2c(F)ccc(-c3c(Cl)c4c5c(nc(OC[C@@]67CCCN6C[C@H](F)C7)nc5c3F)N3CCOCC3CO4)c12` (stereo partly drawn) [compound 116, 2-amino-4-(6-chloro-4-fluoro-2-(((2R,7aS)-2-fluorotetrahydro-1H-pyrrolizin-7a(5H)-yl)methoxy)-8a,9,11,12-tetrahydro-8H-[1,4]oxazino[3′,4′:3,4][1,4]oxazepino[5,6,7-de]quinazolin-5-yl)-7-fluorobenzo[b]thiophene-3-carbonitrile], the pIC50 on K-Ras G12D, at K-Ras G12S, on K-Ras G12V, on wildtype K-Ras, in the assay with GP2D cells and with A549 cells was above 5.30 in each case. For the same molecule, the pIC50 in the assay on SW620 cells was above 5.30.

`N#Cc1c(N)sc2c(F)ccc(-c3c(Cl)c4c5c(nc(OC[C@@]67CCCN6C[C@H](F)C7)nc5c3F)N3CC[C@@H]3CO4)c12` [compound 139, 2-amino-4-((11aR)-9-chloro-7-fluoro-5-(((2R,7aS)-2-fluorotetrahydro-1H-pyrrolizin-7a(5H)-yl)methoxy)-1,2,11,11a-tetrahydroazeto[2′,1′:3,4][1,4]oxazepino [5,6,7-de]quinazolin-8-yl)-7-fluorobenzo[b]thiophene-3-carbonitrile]: the pIC50 on K-Ras G12D was above 5.30; on K-Ras G12S, above 5.30; at K-Ras G12V, above 5.30; at wildtype K-Ras, above 5.30; in the assay with GP2D cells, above 5.30; in the assay with A549 cells, below 5.30. Also, in the assay with SW620 cells, the negative-log IC50 (pIC50) is above 5.30.

As for `N#Cc1c(N)sc2c(F)ccc(-c3c(Cl)c4c5c(nc(OC[C@@]67CCCN6C[C@H](F)C7)nc5c3F)N3CCC[C@@H]3CO4)c12` [compound 144, 2-amino-4-((12aR)-10-chloro-8-fluoro-6-(((2R,7aS)-2-fluorotetrahydro-1H-pyrrolizin-7a(5H)-yl)methoxy)-2,3,12,12a-tetrahydro-1H-pyrrolo[2′,1′:3,4][1,4]oxazepino[5,6,7-de]quinazolin-9-yl)-7-fluorobenzo[b]thiophene-3-carbonitrile], the negative-log IC50 (pIC50) on K-Ras G12D, at K-Ras G12S, on K-Ras G12V, on wildtype K-Ras, with GP2D cells and in the assay on A549 cells was above 5.30 in each case. In the assay on SW620 cells, this molecule had a pIC50 above 5.30.

In the case of `N#Cc1c(N)sc2c(F)ccc(-c3c(Cl)c4c5c(nc(OC[C@@]67CCCN6C[C@H](F)C7)nc5c3F)N3Cc5ccnn5CCC3CCO4)c12` (single isomer, unassigned) [compound 153], the negative-log IC50 (pIC50) at K-Ras G12D, on K-Ras G12S, at K-Ras G12V, at wildtype K-Ras, in the assay with GP2D cells and with A549 cells was above 5.30 throughout. This molecule showed a pIC50 with SW620 cells above 5.30.
